From ChEMBL document CHEMBL4619722, “Alanine scan-guided synthesis and biological evaluation of analogues of culicinin D, a potent anticancer peptaibol” (Bioorg Med Chem Lett, 2020) come the findings set out here.

Common to all, as to format: functional, cell-based
The subject of assay [1] is SK-BR-3. The assay can be described thus: Antiproliferative activity against human SKBR3 cells.
Assay [2] has as its system MDA-MB-468. As to the kind of experiment: Antiproliferative activity against human MDA-MB-468 cells.
The test system of assay [3] is T47D. As to the kind of experiment: Antiproliferative activity against human T47D cells.
For assay [4], the system named is NCI-H460. As to the kind of experiment: Antiproliferative activity against human NCI-H460 cells.

Numbered stars: 1 amine (or outer) side, 2 acyl side, 3 side chain; on linkers, the order of the positions; unused ones are H or OH. Square brackets hold non-standard residues; d marks the D form. Peptide text beside a SMILES is read from it. * marks the point of attachment. ξ: configuration not given here. X1 = CCC(=O)C[C@H](O)C[C@@H](C)C[C@H](N[*:1])C(=O)[*:2]; Gly(1-adamantyl) = N[C@H](C(=O)O)C12CC3CC(CC(C3)C1)C2; Nva(5-pentanoyl) = CCCCC(=O)CCC[C@H](N)C(=O)O; NH((S)CH(Me)CH2NHC2H4OH) = C[C@@H](CNCCO)N*; Gly(octyl) = CCCCCCCC[C@H](N)C(=O)O; X2 = O=C([C@H](CCCCO)N[*:1])[*:2]; X3 = C[C@H](NC[C@H](C)N*)C(=O)O; Ac6c = NC1(C(=O)O)CCCCC1; Nle = CCCC[C@H](N)C(=O)O; Aib = CC(C)(N)C(=O)O; Butyryl = CCCC(=O)*; ξP = O=C(O)C1CCCN1; βAla = NCCC(=O)O

In the case of `CCCCCCCC[C@H](NC(=O)C(C)(C)NC(=O)C(C)(C)NC(=O)[C@H](CCCC(=O)CCCC)NC(=O)C1CCCN1C(=O)CCC)C(=O)N[C@@H](CC(C)C)C(=O)NC(C)(C)C(=O)N[C@@H](CC(C)C)C(=O)NCCC(=O)N[C@@H](C)CN[C@@H](C)C(=O)O` (stereo partly drawn) (Butyryl-[ξP][Nva(5-pentanoyl)][Aib][Aib][Gly(octyl)]L[Aib]L[βAla]-X3), the concentration for half-maximal inhibition (IC50) in assay [1] was above 1000 nM; in assay [2], above 500 nM; in assay [3], above 500 nM; in assay [4] it was 291 nM.
Regarding `CCCCCCCC[C@H](NC(=O)C(C)(C)NC(=O)C(C)(C)NC(=O)[C@H](CCSC)NC(=O)[C@@H]1CCCN1C(=O)CCC)C(=O)N[C@@H](CC(C)C)C(=O)NC(C)(C)C(=O)N[C@@H](CC(C)C)C(=O)NCCC(=O)N[C@@H](C)CNCCO` (Butyryl-PM[Aib][Aib][Gly(octyl)]L[Aib]L[βAla]-{NH((S)CH(Me)CH2NHC2H4OH)}), the IC50 was 43 nM in assay [1], 11 nM in assay [2], 8 nM in assay [3] and 10 nM in assay [4].
Take `CCCCCCCC[C@H](NC(=O)C(C)(C)NC(=O)C(C)(C)NC(=O)[C@H](CCCC(=O)CCCC)NC(=O)C1CCCN1C(=O)CCC)C(=O)N[C@@H](CC(C)C)C(=O)NC(C)(C)C(=O)N[C@@H](CC(C)C)C(=O)N[C@@H](C)C(=O)N[C@@H](C)CNCCO` (stereo partly drawn) (Butyryl-[ξP][Nva(5-pentanoyl)][Aib][Aib][Gly(octyl)]L[Aib]LA-{NH((S)CH(Me)CH2NHC2H4OH)}): the IC50 was 36 nM in assay [1], 26 nM in assay [2], 21 nM in assay [3] and 16 nM in assay [4].
Regarding `CCCCCCCC[C@H](NC(=O)C(C)(C)NC(=O)C(C)(C)NC(=O)C1(NC(=O)[C@@H]2CCCN2C(=O)CCC)CCCCC1)C(=O)N[C@@H](CC(C)C)C(=O)NC(C)(C)C(=O)N[C@@H](CC(C)C)C(=O)NCCC(=O)N[C@@H](C)CNCCO` (Butyryl-P[Ac6c][Aib][Aib][Gly(octyl)]L[Aib]L[βAla]-{NH((S)CH(Me)CH2NHC2H4OH)}), the concentration for half-maximal inhibition (IC50) in assay [1] was 96 nM; in assay [2] it was 31 nM; in assay [3] it was 25 nM; in assay [4] it was 39 nM.
Turning to `CCCC[C@H](NC(=O)C(C)(C)NC(=O)C(C)(C)NC(=O)[C@H](C[C@H](C)C[C@@H](O)CC(=O)CC)NC(=O)[C@@H]1CCCN1C(=O)CCC)C(=O)N[C@@H](CC(C)C)C(=O)NC(C)(C)C(=O)N[C@@H](CC(C)C)C(=O)NCCC(=O)N[C@@H](C)CNCCO` (Butyryl-P[X1][Aib][Aib][Nle]L[Aib]L[βAla]-{NH((S)CH(Me)CH2NHC2H4OH)}), the half-inhibitory concentration (IC50) was above 1000 nM in assay [1], 90 nM in assay [2], 124 nM in assay [3] and above 500 nM in assay [4].
Take `CCCCCCCC[C@H](NC(=O)C(C)(C)NC(=O)C(C)(C)NC(=O)[C@H](Cc1c[nH]cn1)NC(=O)[C@@H]1CCCN1C(=O)CCC)C(=O)N[C@@H](CC(C)C)C(=O)NC(C)(C)C(=O)N[C@@H](CC(C)C)C(=O)NCCC(=O)N[C@@H](C)CNCCO` (Butyryl-PH[Aib][Aib][Gly(octyl)]L[Aib]L[βAla]-{NH((S)CH(Me)CH2NHC2H4OH)}): the half-inhibitory concentration (IC50) in assay [1] is above 1000 nM; in assay [2], 136 nM; in assay [3] it was 151 nM; in assay [4], 456 nM.
With `CCCCCCCC[C@H](NC(=O)[C@@H]1CCCN1C(=O)CCC)C(=O)NC(C)(C)C(=O)NC(C)(C)C(=O)N[C@@H](CCCCCCCC)C(=O)N[C@@H](CC(C)C)C(=O)NC(C)(C)C(=O)N[C@@H](CC(C)C)C(=O)NCCC(=O)N[C@@H](C)CNCCO` (Butyryl-P[Gly(octyl)][Aib][Aib][Gly(octyl)]L[Aib]L[βAla]-{NH((S)CH(Me)CH2NHC2H4OH)}), the 50% inhibitory concentration (IC50) stood at 15 nM in assay [1], 5 nM in assay [2], 7 nM in assay [3] and 5 nM in assay [4].
As for `CCCCCCCC[C@H](NC(=O)C(C)(C)NC(=O)C(C)(C)NC(=O)[C@H](CCCC(=O)CCCC)NC(=O)C1CCCN1C(=O)CCC)C(=O)N[C@@H](C)C(=O)NC(C)(C)C(=O)N[C@@H](CC(C)C)C(=O)NCCC(=O)N[C@@H](C)CNCCO` (stereo partly drawn) (Butyryl-[ξP][Nva(5-pentanoyl)][Aib][Aib][Gly(octyl)]A[Aib]L[βAla]-{NH((S)CH(Me)CH2NHC2H4OH)}), the IC50 in assay [1] came to 130 nM; in assay [2] it was 66 nM; in assay [3], 51 nM; in assay [4] it was 103 nM.
Consider `CCCCCCCC[C@H](NC(=O)C(C)(C)NC(=O)C(C)(C)NC(=O)[C@H](Cc1c[nH]c2ccccc12)NC(=O)[C@@H]1CCCN1C(=O)CCC)C(=O)N[C@@H](CC(C)C)C(=O)NC(C)(C)C(=O)N[C@@H](CC(C)C)C(=O)NCCC(=O)N[C@@H](C)CNCCO` (Butyryl-PW[Aib][Aib][Gly(octyl)]L[Aib]L[βAla]-{NH((S)CH(Me)CH2NHC2H4OH)}), for which the IC50 in assay [1] is 60 nM; in assay [2], 21 nM; in assay [3], 15 nM; in assay [4], 23 nM.
As to `CCCC(=O)N1CCC[C@H]1C(=O)N[C@@H](C[C@H](C)C[C@@H](O)CC(=O)CC)C(=O)NC(C)(C)C(=O)NC(C)(C)C(=O)N[C@@H](CC(C)C)C(=O)N[C@@H](CC(C)C)C(=O)NC(C)(C)C(=O)N[C@@H](CC(C)C)C(=O)NCCC(=O)N[C@@H](C)CNCCO` (Butyryl-P[X1][Aib][Aib]LL[Aib]L[βAla]-{NH((S)CH(Me)CH2NHC2H4OH)}), the concentration for half-maximal inhibition (IC50) in assay [1] is above 1000 nM; in assay [2], 90 nM; in assay [3], 130 nM; in assay [4], 496 nM.
As for `CCCCCCCC[C@H](NC(=O)C(C)(C)NC(=O)C(C)(C)NC(=O)[C@@H](NC(=O)[C@@H]1CCCN1C(=O)CCC)C12CC3CC(CC(C3)C1)C2)C(=O)N[C@@H](CC(C)C)C(=O)NC(C)(C)C(=O)N[C@@H](CC(C)C)C(=O)NCCC(=O)N[C@@H](C)CNCCO` (Butyryl-P[Gly(1-adamantyl)][Aib][Aib][Gly(octyl)]L[Aib]L[βAla]-{NH((S)CH(Me)CH2NHC2H4OH)}), the 50% inhibitory concentration (IC50) is 72 nM in assay [1], 21 nM in assay [2], 16 nM in assay [3] and 17 nM in assay [4].
On to `CCCCCCCC[C@H](NC(=O)C(C)(C)NC(=O)C(C)(C)NC(=O)[C@H](CS)NC(=O)[C@@H]1CCCN1C(=O)CCC)C(=O)N[C@@H](CC(C)C)C(=O)NC(C)(C)C(=O)N[C@@H](CC(C)C)C(=O)NCCC(=O)N[C@@H](C)CNCCO` (Butyryl-PC[Aib][Aib][Gly(octyl)]L[Aib]L[βAla]-{NH((S)CH(Me)CH2NHC2H4OH)}), for which the IC50 is above 1000 nM in assay [1], 262 nM in assay [2], 166 nM in assay [3] and 249 nM in assay [4].
Regarding `CCCCCCCC[C@H](NC(=O)C(C)(C)NC(=O)C(C)(C)NC(=O)[C@H](CCCCO)NC(=O)[C@@H]1CCCN1C(=O)CCC)C(=O)N[C@@H](CC(C)C)C(=O)NC(C)(C)C(=O)N[C@@H](CC(C)C)C(=O)NCCC(=O)N[C@@H](C)CNCCO` (Butyryl-P[X2][Aib][Aib][Gly(octyl)]L[Aib]L[βAla]-{NH((S)CH(Me)CH2NHC2H4OH)}), the IC50 was 270 nM in assay [1], 39 nM in assay [2], 49 nM in assay [3] and 45 nM in assay [4].
As to `CCCCCCCC[C@H](NC(=O)C(C)(C)NC(=O)C(C)(C)NC(=O)[C@H](CCC(=O)O)NC(=O)[C@@H]1CCCN1C(=O)CCC)C(=O)N[C@@H](CC(C)C)C(=O)NC(C)(C)C(=O)N[C@@H](CC(C)C)C(=O)NCCC(=O)N[C@@H](C)CNCCO` (Butyryl-PE[Aib][Aib][Gly(octyl)]L[Aib]L[βAla]-{NH((S)CH(Me)CH2NHC2H4OH)}), the IC50 in assay [1], in assay [2], in assay [3] and in assay [4] was above 10000 nM in each case.
Turning to `CCCCCCCC[C@H](NC(=O)C(C)(C)NC(=O)C(C)(C)NC(=O)CNC(=O)[C@@H]1CCCN1C(=O)CCC)C(=O)N[C@@H](CC(C)C)C(=O)NC(C)(C)C(=O)N[C@@H](CC(C)C)C(=O)NCCC(=O)N[C@@H](C)CNCCO` (Butyryl-PG[Aib][Aib][Gly(octyl)]L[Aib]L[βAla]-{NH((S)CH(Me)CH2NHC2H4OH)}), the concentration for half-maximal inhibition (IC50) in assay [1] was found to be 310 nM; in assay [2], 76 nM; in assay [3] it was 87 nM; in assay [4], 133 nM.
In the case of `CCCCCCCC[C@H](NC(=O)C(C)(C)NC(=O)C(C)(C)NC(=O)C(C)(C)NC(=O)[C@@H]1CCCN1C(=O)CCC)C(=O)N[C@@H](CC(C)C)C(=O)NC(C)(C)C(=O)N[C@@H](CC(C)C)C(=O)NCCC(=O)N[C@@H](C)CNCCO` (Butyryl-P[Aib][Aib][Aib][Gly(octyl)]L[Aib]L[βAla]-{NH((S)CH(Me)CH2NHC2H4OH)}), the half-inhibitory concentration (IC50) in assay [1] turned out to be 150 nM; in assay [2], 48 nM; in assay [3] it was 29 nM; in assay [4], 57 nM.
The matching figures for `CCCCCCCC[C@H](NC(=O)C(C)(C)NC(=O)C(C)(C)NC(=O)[C@H](Cc1ccccc1)NC(=O)[C@@H]1CCCN1C(=O)CCC)C(=O)N[C@@H](CC(C)C)C(=O)NC(C)(C)C(=O)N[C@@H](CC(C)C)C(=O)NCCC(=O)N[C@@H](C)CNCCO` (Butyryl-PF[Aib][Aib][Gly(octyl)]L[Aib]L[βAla]-{NH((S)CH(Me)CH2NHC2H4OH)}): 25 nM, 7 nM, 8 nM and 6 nM.
